According to patent US9434688B2, “Indole derivatives as selective androgen receptor modulators (SARMS)” (Janssen Pharmaceutica, NV, priority 2004, dated 2016):

System: castrated male Sprague Dawley rats
Assay: Ventral Prostate and Seminal Vesicle Weight In Vivo Assay
Parameters: species or system rat; key: active: non weight adjusted prostate weight was ≦40 mg or the % Inhibition prostate weight, body weight adjusted was ≧40% @ 2 mg/day dosage; inactive: they did not meet the specified criteria defined above
Conditions: immature castrated male rats, once daily for five days, with testosterone propionate 2 mg/kg subcutaneously
Procedure: Immature (approximately 50 g) castrated male Sprague Dawley rats (Charles River) were treated once daily for five days with test compound (usually given orally at 40 mg/kg in a volume of 0.3 mL, in 30% cyclodextrin or 0.5% methylcellulose vehicle) and with testosterone propionate (given subcutaneously by injection at the nape of the neck at 2 mg/kg, in a volume of 0.1 mL in sesame oil). On the sixth day, the rats were euthanized by asphyxiation in carbon dioxide. Ventral prostates and seminal vesicles were removed and their wet weights determined.
A test compound was said to be “active” if the non weight adjusted prostate weight was ≦40 mg or the % Inhibition prostate weight, body weight adjusted was ≧40% @ 2 mg/day dosage.

SMILES | active / inactive: inhibition of testosterone-enhanced prostate weight
CCSCC(C)(O)c1cc2cc(F)c(Cl)cc2[nH]1 (racemic) [compound 206] | active
CCSCC(C)(O)c1[nH]c2cc(C(F)(F)F)c([N+](=O)[O-])cc2c1C (racemic) [compound 221] | inactive
N#Cc1cc2cc(C3(O)CCSC3)[nH]c2cc1C(F)(F)F (stereo not drawn) [Compound #15] | inactive
OC1(c2cc3cc(Cl)c(C(F)(F)F)cc3[nH]2)CCSC1 (stereo not drawn) [compound 14] | inactive
O=[N+]([O-])c1cc2cc(C3(O)CCSC3)[nH]c2cc1C(F)(F)F (stereo not drawn) [compound 18] | inactive
CSCC(C)(O)c1cc2cc([N+](=O)[O-])c(C(F)(F)F)cc2[nH]1 (stereo not drawn) [compound 139] | active
CCSCC(C)(O)c1cc2cc(C#N)c(Cl)cc2[nH]1 (stereo not drawn) [compound 225] | active

Target: T1, androgen receptor (Rattus norvegicus, UniProt P15207)
T1 sequence (P15207 1-902): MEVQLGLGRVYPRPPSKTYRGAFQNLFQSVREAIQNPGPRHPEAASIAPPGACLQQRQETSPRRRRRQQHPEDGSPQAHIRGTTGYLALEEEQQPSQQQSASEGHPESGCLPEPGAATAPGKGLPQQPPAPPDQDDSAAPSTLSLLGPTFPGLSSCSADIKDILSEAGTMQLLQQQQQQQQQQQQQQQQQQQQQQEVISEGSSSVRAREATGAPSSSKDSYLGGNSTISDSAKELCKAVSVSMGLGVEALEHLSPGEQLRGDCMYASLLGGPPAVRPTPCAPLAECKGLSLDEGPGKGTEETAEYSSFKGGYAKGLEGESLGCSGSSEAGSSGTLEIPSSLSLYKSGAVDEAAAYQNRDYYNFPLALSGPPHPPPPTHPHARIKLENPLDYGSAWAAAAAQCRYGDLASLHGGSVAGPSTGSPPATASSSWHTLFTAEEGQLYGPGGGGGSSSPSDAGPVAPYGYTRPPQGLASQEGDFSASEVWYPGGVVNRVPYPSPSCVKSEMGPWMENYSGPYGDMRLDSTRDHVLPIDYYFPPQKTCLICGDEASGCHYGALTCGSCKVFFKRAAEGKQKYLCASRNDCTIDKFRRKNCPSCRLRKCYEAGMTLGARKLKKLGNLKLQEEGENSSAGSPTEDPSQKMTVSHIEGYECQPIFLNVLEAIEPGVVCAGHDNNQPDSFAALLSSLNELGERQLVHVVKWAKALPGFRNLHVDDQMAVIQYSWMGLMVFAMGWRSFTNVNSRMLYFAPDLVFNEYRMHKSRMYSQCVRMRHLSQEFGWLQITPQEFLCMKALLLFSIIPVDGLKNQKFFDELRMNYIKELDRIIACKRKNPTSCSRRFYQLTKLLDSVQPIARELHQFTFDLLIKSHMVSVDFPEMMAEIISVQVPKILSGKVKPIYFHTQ
Assay: Androgen Receptor Binding Using Rat Ventral Prostate Cytosol
Parameters: from tissue; host or cells: ventral prostate cytosol of castrated male Sprague Dawley or Wistar rats
Conditions: Rat Cytosol; Concentration 3000 nM
Procedure: Rat Prostate Cytosol Preparation:
Male Sprague Dawley or Wistar rats (Charles River, 200-300 g) were used for each preparation. The day before preparing the cytosol, the rats were castrated using standard surgical procedures.
The rats were euthanized by carbon dioxide asphyxiation. The rat prostates were quickly removed and placed on ice in pre-chilled, pre-weighed 50 mL plastic tubes. No more than five prostates were placed into one tube. The tubes were then weighed and the prostate tissue wet weights calculated.
To the chilled prostate tissue was then added […] of chilled homogenization buffer. The homogenization buffer was freshly prepared by mixing 10 mM Tris.HCl, pH 7.4, 1 mM sodium molybdate, 1.5 mM EDTA, 1 mM dithiothreitol, 10% (v/v) glycerol and 1% protease inhibitor cocktail (Sigma P 8340).
The prostate tissue was homogenized in a cold room using a pre-chilled Polytron PT3000 homogenizer (Brinkmann). Homogenization was performed at a speed setting of 20, three times for 10 sec bursts. The tubes containing the prostate tissue was kept on ice while homogenizing. The homogenate was allowed to rest on ice for 20 sec between bursts.
The homogenate was then placed into pre-chilled 3 mL polycarbonate ultracentrifuge tubes and centrifuged in the TLA-100 rotor of a TL-100 ultracentrifuge for 12 min at 100,000 rpm at 4° C. The resulting supernatant was stored in 1 mL aliquots at −80° C. until needed.
Binding to the androgen receptor was determined according to the protocol described in Example 86 using the above prepared rat cytosol.
% Inhibition was determined by testing dilutions of the test compound (usually duplicates of 10 μM) in the binding assay. Counts per well were measured and percents of inhibition determined. […] Counts per well were measured and IC50s determined by linear regression.

SMILES | % Inhibition [%]
CC(O)(C[S+]([O-])Cc1ccccc1)c1cc2cc([N+](=O)[O-])c(C(F)(F)F)cc2[nH]1 (mixture of isomers) [compound 161] | 39
COc1ccc(S(=O)(=O)CC(C)(O)c2cc3cc(Cl)c(C(F)(F)F)cc3[nH]2)cc1 (racemic) [compound 129] | 39.5
COc1ccc(SCC(C)(O)c2cc3cc(Cl)c(C(F)(F)F)cc3n2S(C)(=O)=O)cc1 (racemic) [compound 130] | 32.55

Target: T1, androgen receptor
Assay: COS-7 Whole-Cell Androgen Receptor Binding Assay, Adenovirus Transduction
Conditions: COS Binding
Procedure: COS-7 cells were plated in 96-well plates at 20,000 cells per well, in a solution of DMEM/F12 (GIBCO) containing 10% (v/v) charcoal-treated fetal bovine serum (Hyclone) and lacking phenol red. The cells were then incubated overnight at 37° C. in 5% (v/v) humidified CO2.
Test compound solutions were prepared by diluting the test compound in 100% (v/v) DMSO, if necessary.
Next, 1 mL of DMEM/F12 lacking phenol red was pipetted into each of the wells of a 2-mL 96-well assay block. […] The wells were carefully mixed by pipette.
In a 15 mL or 50 mL sterile centrifuge tube, a dilution in DMEM/F12 of the adenovirus AdEasy+rAR at a moi of 1:50 per well was prepared.
The medium was removed from the 96-well plates by inversion and the plates dried very briefly, inverted, on a sterile towel. As soon as possible after medium removal, 40 μL of the diluted test compound was added to each well, in duplicate. […] The plates were then incubated for 48 hours at 37° C. in 5% (v/v) humidified CO2.
The medium was removed from the above incubated plates by inversion and dried. Each well was then washed with 0.35 mL of 1×PBS. The PBS was then removed from the plates by inversion and the plates dried.
To each well was then added 50 μL of 0.5% (v/v) Triton X-100 (Sigma) in 1×PBS and the plates placed on a rotary shaker for 5 min. The contents of each well were then transferred to an OptiPlate-96 (Packard) scintillation plate. To each well was then added 0.2 mL of Microscint-20 (Packard) and the wells counted on a TopCount (Packard).
Percent inhibition was determined by testing dilutions of the test compound (usually duplicates of 10 μM) in the binding assay. Counts per well were measured and percents of inhibition determined. […] Counts per well were measured and IC50s determined by linear regression.

SMILES | IC50 [nM]
CCSCC(C)(O)c1[nH]c2cc(C(F)(F)F)c(Br)cc2c1C (stereo not drawn) [compound 220] | 34

Same assay, conditions: COS Binding; concentration of 3000 nM unless otherwise noted

SMILES | % Inhibition [%]
C[S+]([O-])CCC(C)(O)c1cc2cc([N+](=O)[O-])c(C(F)(F)F)cc2[nH]1 (mixture of isomers) [compound 50] | 7
CC(O)(C[S+]([O-])Cc1ccccc1)c1cc2cc([N+](=O)[O-])c(C(F)(F)F)cc2[nH]1 (mixture of isomers) [compound 161] | 20
CC(O)(CSc1ccc(N)cc1)c1cc2cc(Cl)c(C(F)(F)F)cc2n1S(C)(=O)=O (racemic) [compound 125] | 30
COc1ccc(S(=O)(=O)CC(C)(O)c2cc3cc(Cl)c(C(F)(F)F)cc3[nH]2)cc1 (racemic) [compound 129] | 10
COc1ccc(SCC(C)(O)c2cc3cc(Cl)c(C(F)(F)F)cc3n2S(C)(=O)=O)cc1 (racemic) [compound 130] | −8
CCSCC(C)(O)c1cc2cc(Cl)ccc2n1S(C)(=O)=O (racemic) [compound 154] | 50
CCSCC(C)(O)c1cc2cc(F)c(Cl)cc2[nH]1 (racemic) [compound 206] | −40
CC(O)(CSCC(F)(F)F)c1cc2cc([N+](=O)[O-])c(C(F)(F)F)cc2[nH]1 (single isomer, unassigned) [compound 202] | 50

Target: T1, androgen receptor
Assay: L929 Androgen Receptor Functional Assay, Adenovirus Transduction
Type: cell-based
Parameters: expressed in transfected cells; host or cells: L929 cells transduced with adenovirus AdEasy+rAR
Conditions: L929 agonist testing; concentration of 3000 nM
Procedure: L929 cells were plated in 96-well plates at 20,000 cells per well, in DMEM/F12 (GIBCO) containing 10% (v/v) charcoal-treated fetal bovine serum (Hyclone) and lacking phenol red. The plates were then incubated overnight at 37° C. in 5% (v/v) humidified CO2.
Test compound dilutions were prepared in 100% (v/v) DMSO, if necessary. Each dilution was made to 1250× the final desired assay concentration.
First, 2 mL of DMEM/F12 lacking phenol red was pipetted into the wells of a 2-mL 96-well assay block. Next, 4 μL of the 1250× test compound dilutions were pipetted into each well of the assay block. The mixtures within the well were then carefully mixed by pipette.
In a 15 mL or 50 mL sterile centrifuge tube, a 2.5 nM (2.5×) dilution of R1881 (methyl-trienolone) in DMEM/F12 lacking phenol red was prepared.
In a second 15 mL or 50 mL centrifuge tube a solution containing an equal volume of DMEM to the first and an equal volume of 100% (v/v) DMSO to the volume of R1881 used in the first tube was prepared.
In a 15 mL or 50 mL sterile centrifuge tube, a dilution in DMEM/F12 of the adenovirus AdEasy+rAR at an moi of 1:500 per well was prepared.
The medium was removed from the 96-well plates by inversion and dried, inverted, very briefly. As soon as possible after medium removal, 40 μL of the diluted unlabeled test compound was added to each well, in duplicate. To each well designated for antagonist testing was added 40 μL of the 2.5 nM R1881 dilution to the wells for antagonist testing. To each well designated for agonist testing was added 40 μL of the DMSO dilution. Then 20 μL of the diluted adenovirus were added to all wells. The plates were incubated for 48 hours at 37° C. in 5% (v/v) humidified CO2.
To each well was added 100 μL of Steady-Glo luciferase assay substrate (Promega) and the plates were placed on a rotary shaker for 1 min. The plates were then incubated at room temperature in the dark for one hour. The contents of each well were then transferred to a white microtiter plate (Packard) and read on a Luminoskan Ascent (Thermo Lab Systems).
L929 AR percent activity was determined by testing dilutions of the test compound using a concentration of 3000 nM unless otherwise noted. L929 percent inhibition was determined by testing dilutions of the test compound using a concentration of 3000 nM. […] Luciferase activity per well were measured and EC50s and IC50s determined by linear regression.

SMILES | % Activity [%]
C[S+]([O-])CCC(C)(O)c1cc2cc([N+](=O)[O-])c(C(F)(F)F)cc2[nH]1 (mixture of isomers) [compound 50] | 2
CC(O)(C[S+]([O-])Cc1ccccc1)c1cc2cc([N+](=O)[O-])c(C(F)(F)F)cc2[nH]1 (mixture of isomers) [compound 161] | 2
CC(O)(CSc1ccc(N)cc1)c1cc2cc(Cl)c(C(F)(F)F)cc2n1S(C)(=O)=O (racemic) [compound 125] | −5
COc1ccc(S(=O)(=O)CC(C)(O)c2cc3cc(Cl)c(C(F)(F)F)cc3[nH]2)cc1 (racemic) [compound 129] | −5
COc1ccc(SCC(C)(O)c2cc3cc(Cl)c(C(F)(F)F)cc3n2S(C)(=O)=O)cc1 (racemic) [compound 130] | −5
CCSCC(C)(O)c1cc2cc(Cl)ccc2n1S(C)(=O)=O (racemic) [compound 154] | 2
CCSCC(C)(O)c1cc2cc(F)c(Cl)cc2[nH]1 (racemic) [compound 206] | 5
CCSCC(C)(O)c1[nH]c2cc(C(F)(F)F)c([N+](=O)[O-])cc2c1C (racemic) [compound 221] | −1
CC(O)(CSCC(F)(F)F)c1cc2cc([N+](=O)[O-])c(C(F)(F)F)cc2[nH]1 (single isomer, unassigned) [compound 202] | 1

Same assay, conditions: L929 antagonist testing with R1881; concentration of 3000 nM

SMILES | % Inhibition [%]
COc1ccc(S(=O)(=O)CC(C)(O)c2cc3cc(Cl)c(C(F)(F)F)cc3[nH]2)cc1 (racemic) [compound 129] | −8
CCSCC(C)(O)c1cc2cc(Cl)ccc2n1S(C)(=O)=O (racemic) [compound 154] | 7
